Consider two compounds from ChEMBL document CHEMBL3886201, “Compositions and methods for the treatment of malaria” (2016).

In one assay the target is Beta-secretase 1 (Homo sapiens, UniProt P56817). Briefly: The enzymatic inhibition activity assays were determined using the fluorescence resonance energy transfer (FRET) assay. The assays were performed in a 384-well plate format. […] The concentration of Cathepsin D was 20 ng/μL, and 1 ng/μL of Cathepsin E was used. CatD and CatE were activated by incubation in assay buffer (0.1 M NaOAc, 0.2 M NaCl, pH 3.5) at room temperature for 30 min. Subsequently, the rhBACE-1 substrate (R&D Systems, catalog# ES004), the Cathepsin D and Cathepsin E substrate (R&D Systems, Catalog # ES001) were added accordingly to final concentration.
Chain of Beta-secretase 1 (P56817 whole entry): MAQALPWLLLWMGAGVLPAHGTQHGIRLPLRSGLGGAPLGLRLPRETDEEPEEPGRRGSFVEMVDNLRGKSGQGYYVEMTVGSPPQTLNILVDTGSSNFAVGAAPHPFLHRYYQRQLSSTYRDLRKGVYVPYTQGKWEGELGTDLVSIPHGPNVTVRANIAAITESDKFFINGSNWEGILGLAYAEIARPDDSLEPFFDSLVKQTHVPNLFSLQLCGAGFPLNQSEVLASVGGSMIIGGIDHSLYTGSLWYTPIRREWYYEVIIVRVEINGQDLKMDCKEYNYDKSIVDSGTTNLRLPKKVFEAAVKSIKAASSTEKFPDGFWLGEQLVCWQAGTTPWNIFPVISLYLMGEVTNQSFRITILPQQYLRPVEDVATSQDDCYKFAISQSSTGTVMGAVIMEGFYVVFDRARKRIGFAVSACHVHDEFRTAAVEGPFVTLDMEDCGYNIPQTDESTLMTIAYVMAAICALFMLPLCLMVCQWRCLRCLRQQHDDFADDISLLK

For another assay, the target named is Plasmepsin II (Plasmodium falciparum, UniProt P46925). The assay can be described thus: Enzyme Inhibition Assay : Plasmepsin-2 (PM-2; Plm II) and Plasmepsin (PM-4; Plm IV) expression and purification was performed following the published protocols (Istvan E S and Goldberg D E, 2005). The final purified protein was activated by diluting the protein to 0.3 mg/mL in activating buffer (0.1 M citrate pH 4.5, 0.1% Tween-20, 50 mM dithiothreitol) and incubated at room temperature for 40 min, then the activated enzyme was diluted in assay buffer (50 mM sodium acetate pH 4.7, 0.01% Tween-20). The enzymatic inhibition reaction was performed in 384 well plates with a total volume of 20 μl. 10 μl of diluted PM-2 or PM-4 enzyme was added to the 384-well plate except blank wells (blank wells add 10 μL of assay buffer) and 20 nL of serials of diluted 1000× compounds were added to the wells with 520 Echo® Liquid Handling System (Labcyte Inc.). 10 μL PM-2 peptide substrate (AnaSpec, Cat#, 62050) with assay buffer was then added to final concentration of 20 μM to start the reaction.
Chain of Plasmepsin II (P46925 whole entry): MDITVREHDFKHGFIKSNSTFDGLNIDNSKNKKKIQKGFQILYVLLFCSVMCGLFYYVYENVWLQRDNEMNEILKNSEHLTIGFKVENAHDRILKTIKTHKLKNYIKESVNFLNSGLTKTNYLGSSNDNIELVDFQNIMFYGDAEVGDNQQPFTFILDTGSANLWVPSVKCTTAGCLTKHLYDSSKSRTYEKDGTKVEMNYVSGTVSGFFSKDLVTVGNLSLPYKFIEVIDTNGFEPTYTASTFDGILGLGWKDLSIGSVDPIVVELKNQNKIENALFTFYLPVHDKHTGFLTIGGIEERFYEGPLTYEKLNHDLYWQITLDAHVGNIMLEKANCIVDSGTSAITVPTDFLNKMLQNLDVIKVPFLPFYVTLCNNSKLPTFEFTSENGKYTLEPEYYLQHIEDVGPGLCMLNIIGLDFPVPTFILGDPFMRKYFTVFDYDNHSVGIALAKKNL

Each structure is given as a SMILES string.

For `N=C1NC(c2cccc(-c3cccnc3)c2)(C2CC2)C(=O)N1C1CCCCC1` (stereo not drawn), the IC50 (as a rule, the concentration needed to halve the response being measured) is 16800 nM at Beta-secretase 1 and 126 nM against Plasmepsin II.
Turning to `N=C1NC(c2ccccc2)(c2cccc(Oc3ccccc3)c2)C(=O)N1C1CCCCC1` (stereo not drawn), it took 2.2 nM to reach half-maximal inhibition against Plasmepsin II (IC50).
